{
  "source": "paper PMC5384220",
  "about": "(Nature Communications, 2017)",
  "key": {"His-KDM4A1-359": {"target": "T1, His-KDM4A1-359 (Homo sapiens, UniProt O75164)", "T1 construct": "using 0.5 μM His-KDM4A1–359; made in house", "T1 sequence (O75164 1-359)": "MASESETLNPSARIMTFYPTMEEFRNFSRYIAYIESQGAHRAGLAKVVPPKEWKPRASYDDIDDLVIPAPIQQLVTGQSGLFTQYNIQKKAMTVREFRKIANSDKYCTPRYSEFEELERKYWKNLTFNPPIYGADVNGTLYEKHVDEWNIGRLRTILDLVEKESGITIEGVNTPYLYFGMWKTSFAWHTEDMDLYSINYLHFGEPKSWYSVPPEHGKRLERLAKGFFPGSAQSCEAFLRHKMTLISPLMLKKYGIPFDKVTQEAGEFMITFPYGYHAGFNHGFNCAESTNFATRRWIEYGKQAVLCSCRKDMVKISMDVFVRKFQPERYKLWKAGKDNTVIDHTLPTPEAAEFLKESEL", "experiment": "Formaldehyde dehydrogenase coupled KDM assay (mode of inhibition)", "type": "biochemical", "procedure": "The formaldehyde dehydrogenase coupled KDM assay was used to determine the mode of inhibition[34], using 0.5 μM His-KDM4A1–359. Prism 5.0 (GraphPad) was used to fit in mix-mode inhibition, to determine the kinetic parameters. Binding constants for CPs and H3(1–15)K9me3 were measured using biolayer interferometry (OctetRed 384, ForteBio) in buffer (50 mM HEPES (pH 7.5), 150 mM NaCl, 10 μM ammonium iron(II) sulphate). His-KDM4A1–359-Bio (70 nM) was immobilized onto super streptavidin biosensor and subjected to different peptide concentrations in buffer. Data analysis was performed using ForteBio Data Aalysis (v6.4).\nKDM4A1-359 was immobilized and analysed for binding to peptides at different concentrations.\nThe concentration of KDM4A in the assay mixture was 0.5 µM."}, "[1]": {"target": "T2, full-length KDM4A (residues 1-1,064) (Homo sapiens, UniProt O75164)", "T2 construct": "full-length KDM4A (residues 1–1,064) purified from HEK293T cells; made in house; host or cells: HEK293T (transient transfection, anti-FLAG M2 immunoprecipitation)", "T2 sequence (O75164 1-1064)": "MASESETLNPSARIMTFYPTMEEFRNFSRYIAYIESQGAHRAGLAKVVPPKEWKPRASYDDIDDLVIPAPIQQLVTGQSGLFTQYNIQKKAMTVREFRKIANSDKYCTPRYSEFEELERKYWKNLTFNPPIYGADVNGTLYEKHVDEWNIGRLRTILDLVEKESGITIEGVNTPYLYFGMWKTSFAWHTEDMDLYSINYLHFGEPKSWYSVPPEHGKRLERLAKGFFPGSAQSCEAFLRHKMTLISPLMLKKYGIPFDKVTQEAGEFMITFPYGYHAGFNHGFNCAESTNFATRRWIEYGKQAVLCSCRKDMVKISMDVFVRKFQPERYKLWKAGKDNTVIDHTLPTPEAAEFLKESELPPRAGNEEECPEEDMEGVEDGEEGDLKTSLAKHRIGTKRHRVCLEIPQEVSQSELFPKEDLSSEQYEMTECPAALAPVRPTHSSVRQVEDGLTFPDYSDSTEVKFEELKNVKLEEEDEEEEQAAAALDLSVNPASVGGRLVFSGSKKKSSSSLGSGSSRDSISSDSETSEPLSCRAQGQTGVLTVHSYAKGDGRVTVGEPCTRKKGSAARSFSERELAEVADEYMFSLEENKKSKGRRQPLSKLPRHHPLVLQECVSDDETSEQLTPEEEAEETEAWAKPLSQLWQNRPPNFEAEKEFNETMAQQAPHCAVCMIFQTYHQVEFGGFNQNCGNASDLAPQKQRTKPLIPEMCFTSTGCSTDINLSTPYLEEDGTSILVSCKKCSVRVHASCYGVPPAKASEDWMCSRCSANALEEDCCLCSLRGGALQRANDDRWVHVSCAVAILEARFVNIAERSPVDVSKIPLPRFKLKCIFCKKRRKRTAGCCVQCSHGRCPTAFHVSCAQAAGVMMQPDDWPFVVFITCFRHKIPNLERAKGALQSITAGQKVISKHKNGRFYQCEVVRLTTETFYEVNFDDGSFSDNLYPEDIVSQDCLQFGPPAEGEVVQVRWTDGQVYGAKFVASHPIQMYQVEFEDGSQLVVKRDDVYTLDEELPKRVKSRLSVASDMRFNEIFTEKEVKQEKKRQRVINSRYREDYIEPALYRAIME", "experiment": "MALDI-TOF MS demethylation assay with full-length KDM4A", "type": "biochemical", "settings": "CP2 10 µM; H3K9me3 and H3K36me3 peptides 10 µM; 1 h 37°C", "excerpt": "N-terminally Hexa-His-tagged KDM4A (His-KDM4A1–359) was produced and purified as described. The KDM4A gene encoding for KDM4A protein (residues 1-359) was cloned into the pNIC-Bio3 plasmid, which incorporates a C-terminal AviTag and expressed with biotin supplement in BL21(DE3)Rosetta co-transfected with pCDF-BirA[32]. His-KDM4A with biotin (His-KDM4A-Bio) was purified using nickel affinity chromatography. Complete (>95%) biotinylation of KDM4A was confirmed using electrospray ionization–MS (Waters Micromass LCT Premier). […] The full-length FLAG-tagged KDM4A1–1,064 (ref. [15]) was produced in HEK293T cells. HEK293T cells were grown to 80% confluency in DMEM medium (Sigma) supplemented with Glutamax (Life Technologies), 10% fetal bovine serum (FBS, Sigma). FLAG-tagged KDM4A was transfected using polyethyleneimine. Cells were harvested after 48 h, washed with PBS (Sigma) and lysed (45 min, 4 °C) in 50 mM HEPES (pH 7.5), 150 mM NaCl buffer containing protease inhibitor cocktail (Sigma), 10 μM DNase (Sigma) and 0.1% NP40 (Roche). FLAG-tagged KDM4A was purified by immunoprecipitation using anti-FLAG M2 magnetic beads (Sigma) and washed in 50 mM HEPES (pH 7.5) 150 mM NaCl. The final wash was performed in 50 mM HEPES (pH 7.5) and the resin was used as an enzyme source for the full-length KDM4A.\nKDM4A in vitro. […]\n(pH 7.5) at 37°C for 1 h. The assay products were analysed by MALDI-TOF MS. […]"}},
  "data": [
    {"sequence": "DYVYNTRSGWRWYTC [CP2]", "values": [
      {"measurement": "α (mixed-mode inhibition parameter)", "setting": "His-KDM4A1-359; FDH assay, 0.5 µM KDM4A", "value": 4.73},
      {"measurement": "Mode of inhibition with respect to H3K9me3", "setting": "His-KDM4A1-359; kinetic analyses", "value": "competitive inhibitor"},
      {"measurement": "Inhibition of demethylation by full-length KDM4A", "setting": "[1]", "value": "inhibits"}
    ]}
  ]
}
